# Values quoted from earlier work in US7083802B2, “Treatment of ocular disease” (Advanced Ocular Systems Limited, priority 2003, dated 2006).
# Tests used:
# [1] = reported in co-pending application Ser. No. 10/247,220
smiles,measurement,setting,value
C=CC[C@@H]1/C=C(\C)C[C@H](C)C[C@H](OC)[C@H]2O[C@@](O)(C(=O)C(=O)N3CCCC[C@H]3C(=O)O[C@H](/C(C)=C/[C@@H]3CC[C@@H](O)[C@H](OC)C3)[C@H](C)[C@@H](O)CC1=O)[C@H](C)C[C@@H]2OC [tacrolimus],Dose for administration without substantial toxicity,[1],250 µg
same,Clinical effect in atopic dermatitis,"topical, doses 0.03%–0.3%, after 2–3 weeks treatment",significant clinical improvement
same,Adverse effects of topical administration versus control,"treatment of dermatoses, concentrations up to 0.3%",no significant difference in effects between treated and control groups
